# Laboratory results as given in ChEMBL document CHEMBL1152060, “Pentamidine congeners 1: Synthesis of Cis- and Trans-butamidine analogues as anti-Pneumocystis carinii pneumonia agents” (1993).
# Assays:
# [1] = system: Rattus norvegicus; assay: Anti-Pneumocystis carinii Pneumonia activity at intravenous dosage of 10.0 mg/kg/day in rat; type: functional
# [2] = system: Rattus norvegicus; assay: In vivo toxicity […] at intravenous dosage of 10.0 mg/kg/day in rat; type: functional
Structure (SMILES),Control [1] [%],Toxicity [2]
C(=C\COc1ccc(C2=NCCN2)cc1)/COc1ccc(C2=NCCN2)cc1,1.5,0
N=C(N)c1ccc(OC/C=C/COc2ccc(C(=N)N)cc2)cc1,0.8,0
N=C(N)c1ccc(OC/C=C\COc2ccc(C(=N)N)cc2)cc1,1.3,0
C(=C/COc1ccc(C2=NCCN2)cc1)/COc1ccc(C2=NCCN2)cc1,1.4,0
N=C(N)c1ccc(OCCCCCOc2ccc(C(=N)N)cc2)cc1 [PENTAMIDINE],4.5,2
